According to patent US7868135B2, “Compositions of lipopeptide antibiotic derivatives and methods of use thereof” (priority 2003, dated 2011):
Starred links: 1 amine or outer side, 2 acyl side, 3 side chain; linkers in the order of their positions; H or OH if unused. Positions of bridges follow the written chain, without caps; N, C: chain ends. Non-standard residues stand in square brackets, D forms with d. Residues, ends and D or L forms follow the SMILES beside them. ξ: configuration not given here. *: point of attachment. X37 = CC(NC(=O)[C@@H](N)CCCCN)C(N[*:1])C(=O)[*:2]; Hexadecanesulfonyl = CCCCCCCCCCCCCCCCS(=O)(=O)*; ξAbu(3ξ-NHCOCH2NH2) = CC(NC(=O)CN)C(N)C(=O)O; ξAbu(βξ-NH2) = CC(N[*:3])C(N[*:1])C(=O)[*:2]; X8 = O=C(/C=C/c1ccc(N[*:1])cc1)[*:2]; ξAsp(βξ-Me) = CC(C(=O)O)C(N)C(=O)O; X1 = O=C(Cc1ccc(N[*:1])cc1)[*:2]; Myristoyl = CCCCCCCCCCCCCC(=O)*; ξAbu(3ξ-NH2) = CC(N)C(N)C(=O)O; Lauroyl = CCCCCCCCCCCC(=O)*; X19 = CCCCCCCCCCS(=O)(=O)*; 4Abz = Nc1ccc(C(=O)O)cc1; Pip = O=C(O)[CH]1CCCCN1; ξD = NC(CC(=O)O)C(=O)O; ξPip = O=C(O)C1CCCCN1; ξV = CC(C)C(N)C(=O)O; ξP = O=C(O)C1CCCN1

tested on: Staphylococcus aureus (MSSA); settings: 24 h
Protocol: (“Approved Standard M7-A3”).
The antimicrobial lipopeptide derivatives described herein were tested for antimicrobial activity against Gram-positive bacteria as follows. The minimum inhibitory concentrations (MIC) of the antimicrobial lipopeptide derivatives of the invention were determined using NCCLS guidelines M7-A6 (2003) with a slight modification in that doubling serial dilutions were used to dilute the test compounds. The broth phase microdilution method was used. Isolated colonies of Staphylococcus aureus (MSSA) from an 18-24 hour blood agar plate cultures were used to inoculate cation adjusted Mueller-Hinton broth (CAMHB) supplemented with 0.625 mM calcium. […] A negative control containing media alone and a positive growth control containing bacteria with media alone were also included. MICs were determined after incubating the plates at about 37° C. for 24 hours. […] In Tables 1 to 16, R is the core cyclic peptide of amphomycin or aspartocin, which can be in the form of a β-isomer, an anhydro, a dianhydro, or any combination thereof. […] Furthermore, a person of skill in the art will appreciate that all the pounds, or groups of compounds, derived from the various combinations of and substituents shown in Tables 1 to 16, are disclosed by the present the same extent as if each compound or group of compounds was set forth individually.

MIC	Structure (SMILES)
32 µg/mL	CCCCCCCCCCCCCCC(=O)NC(CC(=O)O)C(=O)NC1C(=O)N2CCCCC2C(=O)NC(C(C)C(=O)O)C(=O)NC(CC(=O)O)C(=O)NCC(=O)NC(CC(=O)O)C(=O)NCC(=O)NC(C(C)NC(=O)CNC(=O)CCCCC)C(=O)NC(C(C)C)C(=O)N2CCCC2C(=O)NC1C (stereo not shown) [Compound 81, C15-Amphomycin-9-Gly-C6]
2 µg/mL	CCCCCCCCCCCCCCC(=O)NC(CC(=O)O)C(=O)NC1C(=O)N2CCCCC2C(=O)NC(C(C)C(=O)O)C(=O)NC(CC(=O)O)C(=O)NCC(=O)NC(CC(=O)O)C(=O)NCC(=O)NC(C(C)NC(=O)[C@H](C)N)C(=O)NC(C(C)C)C(=O)N2CCCC2C(=O)NC1C (stereo partly shown) [Compound 82, C15-Amphomycin-9-Ala]
2 µg/mL	CCCCCCCCCCCCCCCCNC(=O)NC(CC(=O)O)C(=O)NC1C(=O)N2CCCCC2C(=O)NC(C(C)C(=O)O)C(=O)NC(CC(=O)O)C(=O)NCC(=O)NC(CC(=O)O)C(=O)NCC(=O)NC(C(C)NC(=O)CN)C(=O)NC(C(C)C)C(=O)N2CCCC2C(=O)NC1C (stereo not shown) [Compound 83, CH3—(CH2)15—NH—C(═O)-Amphomycin-9-Gly]
2 to 4 µg/mL	CCCCCCCCCCCCCCCCS(=O)(=O)NC(CC(=O)O)C(=O)NC1C(=O)N2CCCCC2C(=O)NC(C(C)C(=O)O)C(=O)NC(CC(=O)O)C(=O)NCC(=O)NC(CC(=O)O)C(=O)NCC(=O)NC(C(C)NC(=O)CN)C(=O)NC(C(C)C)C(=O)N2CCCC2C(=O)NC1C (stereo not shown) [Compound 84, CH3—(CH2)15—SO2-Amphomycin-9-Gly]
0.25 µg/mL	CCCCCCCCCCCC(=O)Nc1ccc(CC(=O)NC(CC(=O)O)C(=O)NC2C(=O)N3CCCCC3C(=O)NC(C(C)C(=O)O)C(=O)NC(CC(=O)O)C(=O)NCC(=O)NC(CC(=O)O)C(=O)NCC(=O)NC(C(C)NC(=O)CN)C(=O)NC(C(C)C)C(=O)N3CCCC3C(=O)NC2C)cc1 (stereo not drawn) [Compound 86, C12-(p-Apa)-Amphomycin-9-Gly] (Lauroyl-[X1]D[ξAbu(βξ-NH2)][Pip][ξAsp(βξ-Me)]DGDG[ξAbu(3ξ-NHCOCH2NH2)]VP; lactam 3-C; configuration not given here)
0.5 to 1 µg/mL	CCCCCCCCCCCC(=O)Nc1ccc(/C=C/C(=O)NC(CC(=O)O)C(=O)NC2C(=O)N3CCCCC3C(=O)NC(C(C)C(=O)O)C(=O)NC(CC(=O)O)C(=O)NCC(=O)NC(CC(=O)O)C(=O)NCC(=O)NC(C(C)NC(=O)CN)C(=O)NC(C(C)C)C(=O)N3CCCC3C(=O)NC2C)cc1 (stereo not drawn) [Compound 89, C12-(p-Trans-Cinnamyl)-Amphomycin-9-Gly] (Lauroyl-[X8]D[ξAbu(βξ-NH2)][Pip][ξAsp(βξ-Me)]DGDG[ξAbu(3ξ-NHCOCH2NH2)]VP; lactam 3-C; configuration not given here)
4 µg/mL	CCCCCCCCCCCCCCC(=O)NC(CC(=O)O)C(=O)NC1C(=O)N2CCCCC2C(=O)NC(C(C)C(=O)O)C(=O)NC(CC(=O)O)C(=O)NCC(=O)NC(CC(=O)O)C(=O)NCC(=O)NC(C(C)NC(=O)CCCCCNC(=O)CN)C(=O)NC(C(C)C)C(=O)N2CCCC2C(=O)NC1C (stereo not shown) [Compound 93, C15-Amphomycin-9-Ahx-Gly]
2 µg/mL	CCCCCCCCCCCCCCC(=O)NC(CC(=O)O)C(=O)NC1C(=O)N2CCCCC2C(=O)NC(C(C)C(=O)O)C(=O)NC(CC(=O)O)C(=O)NCC(=O)NC(CC(=O)O)C(=O)NCC(=O)NC(C(C)NC(=O)CCCNC(=O)CCCN)C(=O)NC(C(C)C)C(=O)N2CCCC2C(=O)NC1C (stereo not shown) [Compound 94, C15-Amphomycin-9-GABA-GABA]
2 µg/mL	CCCCCCCCCCCCCCC(=O)NC(CC(=O)O)C(=O)NC1C(=O)N2CCCCC2C(=O)NC(C(C)C(=O)O)C(=O)NC(CC(=O)O)C(=O)NCC(=O)NC(CC(=O)O)C(=O)NCC(=O)NC(C(C)NC(=O)[C@@H]2CCCCN2)C(=O)NC(C(C)C)C(=O)N2CCCC2C(=O)NC1C (stereo partly shown) [Compound 95, C15-Amphomycin-9-hPro]
1 µg/mL	CCCCCCCCCCCCCCC(=O)NC(CC(=O)O)C(=O)NC1C(=O)N2CCCCC2C(=O)NC(C(C)C(=O)O)C(=O)NC(CC(=O)O)C(=O)NCC(=O)NC(CC(=O)O)C(=O)NCC(=O)NC(C(C)NC(=O)[C@H]2CCCCN2)C(=O)NC(C(C)C)C(=O)N2CCCC2C(=O)NC1C (stereo partly drawn) [Compound 96, C15-Amphomycin-9-(D-Pip)]
0.5 to 1 µg/mL	CCCCCCCCCCCCCCCCS(=O)(=O)NCC(=O)NC(CC(=O)O)C(=O)NC1C(=O)N2CCCCC2C(=O)NC(C(C)C(=O)O)C(=O)NC(CC(=O)O)C(=O)NCC(=O)NC(CC(=O)O)C(=O)NCC(=O)NC(C(C)N)C(=O)NC(C(C)C)C(=O)N2CCCC2C(=O)NC1C (stereo not drawn) [Compound 99, CH3—(CH2)15—SO2-Gly-Amphomycin] (Hexadecanesulfonyl-GD[ξAbu(βξ-NH2)][Pip][ξAsp(βξ-Me)]DGDG[ξAbu(3ξ-NH2)]VP; lactam 3-C; configuration not given here)
4 µg/mL	CCCCCCCCCCS(=O)(=O)N[C@@H](Cc1ccccc1)C(=O)NC(CC(=O)O)C(=O)NC1C(=O)N2CCCCC2C(=O)NC(C(C)C(=O)O)C(=O)NC(CC(=O)O)C(=O)NCC(=O)NC(CC(=O)O)C(=O)NCC(=O)NC(C(C)N)C(=O)NC(C(C)C)C(=O)N2CCCC2C(=O)NC1C (stereo partly drawn) [Compound 100, CH3—(CH2)9—SO2-Phe-Amphomycin] (X19-F[ξD][ξAbu(βξ-NH2)][ξPip][ξAsp(βξ-Me)][ξD]G[ξD]G[ξAbu(3ξ-NH2)][ξV][ξP]; lactam 3-C)
32 µg/mL	CCCCCCCCCCS(=O)(=O)NCC(=O)NC(CC(=O)O)C(=O)NC1C(=O)N2CCCCC2C(=O)NC(C(C)C(=O)O)C(=O)NC(CC(=O)O)C(=O)NCC(=O)NC(CC(=O)O)C(=O)NCC(=O)NC(C(C)NC(=O)[C@@H](N)CCCCN)C(=O)NC(C(C)C)C(=O)N2CCCC2C(=O)NC1C (stereo partly drawn) [Compound 101, CH3—(CH2)9—SO2-Gly-Amphomycin-9-Lys] (X19-G[ξD][ξAbu(βξ-NH2)][ξPip][ξAsp(βξ-Me)][ξD]G[ξD]G[X37][ξV][ξP]; lactam 3-C)
8 µg/mL	CCCCCCCCCCS(=O)(=O)NCC(=O)NC(CC(=O)O)C(=O)NC1C(=O)N2CCCCC2C(=O)NC(C(C)C(=O)O)C(=O)NC(CC(=O)O)C(=O)NCC(=O)NC(CC(=O)O)C(=O)NCC(=O)NC(C(C)NC(=O)CN)C(=O)NC(C(C)C)C(=O)N2CCCC2C(=O)NC1C (stereo not drawn) [Compound 102, CH3—(CH2)9—SO2-Gly-Amphomycin-9-Gly] (X19-GD[ξAbu(βξ-NH2)][Pip][ξAsp(βξ-Me)]DGDG[ξAbu(3ξ-NHCOCH2NH2)]VP; lactam 3-C; configuration not given here)

Structure (SMILES)	MIC
CCCCCCCCCCCC(=O)Nc1ccc(C(=O)NC(CC(=O)O)C(=O)NC2C(=O)N3CCCCC3C(=O)NC(C(C)C(=O)O)C(=O)NC(CC(=O)O)C(=O)NCC(=O)NC(CC(=O)O)C(=O)NCC(=O)NC(C(C)NC(=O)CN)C(=O)NC(C(C)C)C(=O)N3CCCC3C(=O)NC2C)cc1 (stereo not shown) [Compound 87, C12-PABA-Amphomycin-9-Gly]	0.25 to 0.5 µg/mL
CCCCCCCCCCCCCC(=O)Nc1ccc(C(=O)NCC(=O)NC(CC(=O)O)C(=O)NC2C(=O)N3CCCCC3C(=O)NC(C(C)C(=O)O)C(=O)NC(CC(=O)O)C(=O)NCC(=O)NC(CC(=O)O)C(=O)NCC(=O)NC(C(C)NC(=O)CN)C(=O)NC(C(C)C)C(=O)N3CCCC3C(=O)NC2C)cc1 (stereo not drawn) [Compound 91, C14-PABA-Gly-Amphomycin-9-Gly] ({Myristoyl-4Abz}-GD[ξAbu(βξ-NH2)][Pip][ξAsp(βξ-Me)]DGDG[ξAbu(3ξ-NHCOCH2NH2)]VP; lactam 3-C; configuration not given here)	2 µg/mL

same assay, conditions: S. aureus (MSSA), CAMHB supplemented with 0.625 mM calcium, 24 hours at about 37° C.; a range = compound tested multiple times

MIC	Structure (SMILES)
74/4 μg/mL	CCCCCCCCCCCC(=O)NC(CC(=O)O)C(=O)NC1C(=O)N2CCCCC2C(=O)NC(C(C)C(=O)O)C(=O)NC(CC(=O)O)C(=O)NCC(=O)NC(CC(=O)O)C(=O)NCC(=O)NC(C(C)NC(=O)CNC)C(=O)NC(C(C)C)C(=O)N2CCCC2C(=O)NC1C (stereo not shown) [Compound 74, C12-Amphomycin-9-Sar]
75/1 μg/mL	CCCCCCCCCCCCCCCC(=O)NC(CC(=O)O)C(=O)NC1C(=O)N2CCCCC2C(=O)NC(C(C)C(=O)O)C(=O)NC(CC(=O)O)C(=O)NCC(=O)NC(CC(=O)O)C(=O)NCC(=O)NC(C(C)NC(=O)CNC)C(=O)NC(C(C)C)C(=O)N2CCCC2C(=O)NC1C (stereo not shown) [Compound 75, C16-Amphomycin-9-Sar]
76/16 μg/mL	CCCCCCCCCC(=O)NC(CC(=O)O)C(=O)NC1C(=O)N2CCCCC2C(=O)NC(C(C)C(=O)O)C(=O)NC(CC(=O)O)C(=O)NCC(=O)NC(CC(=O)O)C(=O)NCC(=O)NC(C(C)NC(=O)CCN)C(=O)NC(C(C)C)C(=O)N2CCCC2C(=O)NC1C (stereo not drawn) [Compound 76, C10-Amphomycin-9-(β-Ala)]
77/32 μg/mL	CCCCCCCCCC(=O)NC(CC(=O)O)C(=O)NC1C(=O)N2CCCCC2C(=O)NC(C(C)C(=O)O)C(=O)NC(CC(=O)O)C(=O)NCC(=O)NC(CC(=O)O)C(=O)NCC(=O)NC(C(C)NC(=O)CNC)C(=O)NC(C(C)C)C(=O)N2CCCC2C(=O)NC1C (stereo not shown) [Compound 77, C10-Amphomycin-9-Sar]
78/1 μg/mL	CCCCCCCCCCCCCCCCC(=O)NC(CC(=O)O)C(=O)NC1C(=O)N2CCCCC2C(=O)NC(C(C)C(=O)O)C(=O)NC(CC(=O)O)C(=O)NCC(=O)NC(CC(=O)O)C(=O)NCC(=O)NC(C(C)NC(=O)CNC)C(=O)NC(C(C)C)C(=O)N2CCCC2C(=O)NC1C (stereo not shown) [Compound 78, C17-Amphomycin-9-Sar]
79/1 μg/mL	CCCCCCCCCCCCCCCC(=O)NC(CC(=O)O)C(=O)NC1C(=O)N2CCCCC2C(=O)NC(C(C)C(=O)O)C(=O)NC(CC(=O)O)C(=O)NCC(=O)NC(CC(=O)O)C(=O)NCC(=O)NC(C(C)NC(=O)CCN)C(=O)NC(C(C)C)C(=O)N2CCCC2C(=O)NC1C (stereo not drawn) [Compound 79, C16-Amphomycin-9-(β-Ala)]
